Experimental findings from patent US9643993B2, “Crystalline polymorphic form of ulipristal acetate” (ASKA PHARMACEUTICAL CO., LTD., priority 2012, dated 2017) are described below.

Read-outs that look alike come from different tables or passages of the source.

Data set [1] can be described thus: Solubility in ethanol/water (10/90) mixed solvent at 37° C. Particulars: ethanol/water (volume ratio)=10/90, 37° C., stirred 5 minutes, HPLC.
Procedure: [Solubility] For each of ulipristal acetate samples obtained in Examples and Comparative Example, the solubility was determined as follows. The ulipristal acetate (40 mg) was added to 40 mL of a mixed solvent containing ethanol and water [ethanol/water (volume ratio)=10/90] having a temperature of 37° C. to prepare a test sample. The test sample was stirred by a magnetic stirrer for 5 minutes. Then a portion of the suspension was separated. The solid of the separated portion was filtered out, and the ulipristal acetate content of the residue was quantitatively determined using a high-performance liquid chromatography (column: ODS, column temperature: 40° C., eluate: 0.1% trifluoroacetic acid aqueous solution/acetonitrile mixture (volume ratio 3:2), rate of flow: 1.0 mL/minute, detection: UV 302 nm), and the solubility was calculated.
Data set [2] in a line: Absorption test in dog. The settings on record: female dogs, oral capsule, 25 mg/kg.
Procedure: (§1) For each of ulipristal acetate samples obtained in Examples and Comparative Example, the absorption test was performed as follows. The ulipristal acetate was filled into a gelatin capsule shell (manufacturer: Qualicaps Co., Ltd., size: No. 00, lot: C0079A) to produce a capsule. The capsule was orally administered to 6 female dogs at a dose of 25 mg/kg (in terms of ulipristal acetate). The blood was collected 0.5, 1, 2, 4, 6, 24, and 48 hours after the oral administration. Then the sample was centrifuged to give a plasma. The concentration of the ulipristal acetate in the plasma was measured by a LC-MS/MS (liquid chromatography-tandem mass spectrometry) method, and the elimination half-life (T112), the time to the maximum plasma concentration (Tmax), the maximum plasma concentration (Cmax), the area under the plasma concentration-time curve (AUC), and the mean residence time (MRT) were calculated. The capsule was administered to each female dog twice at dosing intervals (washout period) of one week by crossover method.
For data set [3] the following is noted: dog, in vivo, po, 25 mg/kg.
Procedure: as §1

Regarding `CC(=O)O[C@]1(C(C)=O)CCC2C3CCC4=CC(=O)CCC4=C3[C@@H](c3ccc(N(C)C)cc3)C[C@@]21C` (stereo partly drawn) [Example 1, 17alpha-acetoxy-11beta-(4-N,N-dimethylaminophenyl)-19-norpregna-4,9-diene-3,20-dione], the Solubility in data set [1] is 11.2 µg/mL. In data set [2] (plasma, LC-MS/MS), the AUC0-inf came out at 18078.4 ng·h/mL, the AUC0-t worked out at 12194.3 ng·h/mL, the Cmax worked out at 2200.2 ng/mL and the MRTinf was found to be 37.7 h. Moreover, in data set [2] (plasma, LC-MS/MS), the MRTlast was determined as 11.7 h, the T1/2 was 37.3 h and the Tmax was 1.2 h. The “Pharmacokinetics compared with Comparative Example (in words)” value in data set [2] (summary of Table 5) was “excellent pharmacokinetics”.
In data set [3], `CC(=O)O[C@]1(C(C)=O)CCC2C3CCC4=CC(=O)CCC4=C3[C@@H](c3ccc(N(C)C)cc3)C[C@@]21C` (stereo partly drawn) [Comparative Example, 17alpha-acetoxy-11beta-(4-N,N-dimethylaminophenyl)-19-norpregna-4,9-diene-3,20-dione] had an AUC0-inf of 9390.7 ng·h/mL, an AUC0-t of 8447.4 ng·h/mL, a Cmax of 1490.7 ng/mL and an MRTinf of 16.6 h. Further, in data set [3], the MRTlast stood at 11.8 h, the T1/2 is 14.9 h and the Tmax was 1.8 h.

For orientation: Solubility means how much of the substance goes into solution per volume. A word on the Cmax: it is the highest concentration seen after dosing. In general, Tmax refers to the time from dosing to the highest level.
